Test results reported in paper PMC7144530 (The Journal of Experimental Medicine, 2020).

Test system: CD8 T cells (CD4-depleted splenocytes)
Experiment: IFN-gamma ELISpot of CD8 T cells from mice immunized with mutant SLP + adjuvant
Assay type: in vivo, mouse
Conditions: long peptide ELISpot, immunized vs control; positivity needs effect size ≥2

“IYEFDYHLYGQNITMIMTSVSGHL [Mutation C-117]” was tested, and the “fold-change of IFN-gamma spot counts after vaccination” value was 1.94.
